In brackets after ≈: the same amount, converted by molar mass. Like-named read-outs stand apart in the source and are kept apart here. Bounds are passed on as bounds.

We go through five compounds from patent publication US9765037B2, “Compositions and methods for treating toxoplasmosis, cryptosporidiosis, and other apicomplexan protozoan related diseases” (University of Washington Through its Center for …, priority 2010, dated 2017).

Series [1] deals with ABL (Homo sapiens (Human), UniProt P00519). It is filed as biochemical.
Series [2] deals with SrcKD (Homo sapiens (Human), UniProt P12931). Nature of the series: Tyrosine kinase IC50, SrcKD. It is filed as biochemical.
The target in series [3] is AblKD (Homo sapiens (Human), UniProt P00519). In words: Tyrosine kinase IC50, AblKD. It is filed as biochemical. As to conditions: Table 9.
The target in series [4] is HckKD (Homo sapiens (Human), UniProt P08631). Nature of the series: Tyrosine kinase IC50, HckKD. The note with it: Table 9. It is filed as biochemical.
The target in series [5] is PfCDPK4 (Plasmodium falciparum (isolate 3D7), UniProt Q8IBS5). In words: biochemical.
The target in series [6] is SRC (Homo sapiens (Human), UniProt P12931). As to conditions: read-out: IC50 (μM) Src.
The subject of series [7] is glioma derived (SF539). Nature of the series: Growth inhibition of human cell line SF539. As to conditions: for GI50: read-out: GI50 (μM) SF539.
Series [8] has as its system human promyelocytic leukemia (HL-60). In words: Growth inhibition of human cell line HL-60. The note with it: for GI50: read-out: GI50 (μM) HL60.
Series [9] concerns human lymphocyte (CRL8155). In words: Growth inhibition of human cell line CRL8155. As to conditions: for GI50: read-out: GI50 (μM) CRL8155.
Series [10] relates to colorectal carcinoma (HC 2998). In words: Growth inhibition of human cell line HC 2998. As to conditions: for GI50: read-out: GI50 (μM) HCC2998.
Series [11] addresses CpCDPK1 (Cryptosporidium parvum (strain Iowa II), UniProt A3FQ16). In words: biochemical. It is filed as biochemical.
Series [12] has as its target PfCDPK1 (Plasmodium falciparum (isolate 3D7), UniProt P62344). Nature of the series: biochemical.
Series [13] in a line: in vivo. The note with it: mouse, ip.
Series [14] deals with Src3D (Homo sapiens (Human), UniProt P12931). In words: biochemical.
Series [15] in a line: Blood levels after oral gavage dosing of mice (LC-MS). The note with it: for AUC / Cmax / Tmax: in vivo.
Series [16] has as its system P. berghei expressing PfCDPK4-2x-myc. In words: Exflagellation in blood of treated mice infected with P. berghei expressing PfCDPK4-2x-myc. It counts as in vivo, Plasmodium berghei.
Series [17] can be described thus: Solubility in buffers of various pH. It is filed as physicochemical. The note with it: buffer.
In series [18] the test system is C. parvum. In words: Immunosuppressed (SCID-beige) mouse C. parvum model. As to conditions: SCID-beige mice; oral gavage once a day, days 3-7 and 10-14; 29 and 150 at 50 mg/kg/day, Paromomycin 2 g/kg/day. It is filed as in vivo, Cryptosporidium parvum. Here is the method:
Shown are mean of the parasite numbers detected in 25 mg of stool from each mouse, by qRT-PCR.

The conditions of series [19]: mouse, in vivo, ip, 50 mg/kg.
Series [20] has as its system P. berghei expressing GFP. In words: P. berghei transmission from treated mice to A. stephensi.
The test system of series [21] is human fibroblast. Nature of the series: Human fibroblast replication / cytotoxicity (Alamar blue). It counts as cell-based. (The colour change of resazurin is a common sign of viable cells or microbes.)
Series [22] deals with glioma derived (SF539). As to conditions: human.
Series [23] has as its target Abl3D (Homo sapiens, UniProt P00519). Nature of the series: Tyrosine kinase IC50, Abl3D. It counts as biochemical. As to conditions: Table 9.
Where [24] appears, read: pH 6.5, aqueous buffer, read-out: Experimental Solubility pH 6.5.

One may read the IC50 as the concentration needed to halve the response being measured. In general, EC50 refers to the midpoint of the concentration-response curve. High values mean a less potent agent, low ones a more potent agent. By GI50 is commonly meant the concentration that inhibits growth by half. Regarding `Nc1ncnc2c1c(Cc1cccc3ccccc13)nn2CC1CCNCC1` [Compound 5h, 3-(naphthalen-1-ylmethyl)-1-(piperidin-4-ylmethyl)-1H-pyrazolo[3,4-d]pyrimidin-4-amine], the IC50 is above 20 µM in series [1]; above 20 µM in series [2] (Table 9); above 20 µM in series [3]; above 10 µM in series [4]; above 20 µM in [6]. This compound also displayed an EC50 in series [5] of 154 nM. In addition, the “Cell Toxicity SF539, % at 10 μM” value in [7] is given as below 30% at 10 μM. Moreover, the concentration for 50% growth inhibition (GI50) in [7] (human cell line SF539), in series [8] (human cell line HL60), in [9] (human cell line CRL8155) and in series [10] (human cell line HCC2998) was above 10 µM each time. In addition, in series [8], the “Cell Toxicity HL60, % at 10 μM” value is below 30% at 10 μM. The “Cell Toxicity CRL8155, % at 10 μM” value in series [9] is below 30% at 10 μM. For the same compound, the “Cell Toxicity HCC2998, % at 10 μM” value in [10] is recorded as below 30% at 10 μM.
By AUC is commonly meant concentration integrated over time. A low value points to low exposure. As a reminder, the Cmax is the maximum level reached in the sampled fluid or tissue. Broadly, the Tmax is the time at which the peak concentration occurs. Regarding `COc1ccc2cc(-c3nn(C(C)C)c4ncnc(N)c34)ccc2c1` [Compound 7q, 1-isopropyl-3-(6-methoxynaphthalen-2-yl)-1H-pyrazolo[3,4-d]pyrimidin-4-amine], the IC50 was found to be 0.005 µM in [11] (read-out: IC50 (μM) CpCDPK1); 0.77 µM in series [2]; 0.375 µM in series [4]; 0.77 µM in series [6]; 576 nM in series [14]. Further, the EC50 in series [12] turned out to be 208 nM; in series [5] it was 41.4 nM. The AUC in series [13] was 4.6 µM·h; in series [15] (mouse, po), 35.3 µM·h. For the same compound, the maximum concentration (Cmax) came to 3800 nM in series [13] and 19700 nM in [15] (mouse, po). For the same compound, the Tmax was 30 min in [13] and 30 min in series [15] (mouse, po). In [7], the “Cell Toxicity SF539, % at 10 μM” value is on record as below 30% at 10 μM. Moreover, the concentration for 50% growth inhibition (GI50) in series [7], in [8], in series [9] and in [10] was above 10 µM each time. Further, in [8], the “Cell Toxicity HL60, % at 10 μM” value is listed as below 30% at 10 μM. In addition, the “Cell Toxicity CRL8155, % at 10 μM” value in [9] was below 30% at 10 μM. The “Cell Toxicity HCC2998, % at 10 μM” value in series [10] is given as below 30% at 10 μM.
One may read the solubility as how much of the substance goes into solution per volume. As to `CCOc1ccc2cc(-c3nn(CC4CCNCC4)c4ncnc(N)c34)ccc2c1` [Compound 29, 3-(6-ethoxynaphthalen-2-yl)-1-(piperidin-4-ylmethyl)-1H-pyrazolo[3,4-d]pyrimidin-4-amine], the IC50 in series [11] (Table 8, read-out: IC50 (μM) CpCDPK1) is 0.0035 µM; in series [11] (read-out: Enzymatic Assay IC50 CpCDPK1), 0.001 µM; in series [2] (Table 9) it was above 20 µM; in series [3] it was above 20 µM; in [4], above 10 µM. In addition, in series [12], the midpoint of the response, the EC50, lay at 353 nM. Moreover, the “exflagellation 20 hours after dosing” value in [16] (50 mg/kg i.p.) is “some exflagellation was observed”. Further, the “exflagellation in blood samples from treated mice” value in [16] (50 mg/kg i.p., 30 minutes post-injection and up to 14 hours later) is “completely suppressed exflagellation”. Further, the “exflagellation in treated mice” value in [16] (mice, 10 mg/kg i.p.) was “sufficient to block exflagellation”. For the same compound, in series [16] (mice, 50 mg/kg i.p.), the “duration of complete suppression of exflagellation” value amounted to 14 h. Besides, the solubility in [17] (aqueous buffer, pH 2.0, read-out: Experimental Solubility pH 2.0) is 34 µM (≈ 13.7 µg/mL); in series [17] (setting [24]), 47 µM (≈ 18.9 µg/mL); in series [17] (pH 7.4, aqueous buffer, read-out: Experimental Solubility pH 7.4) it was 49 µM (≈ 19.7 µg/mL). Moreover, the “parasite burden rebound after treatment” value in [18] is listed as “slowly”. For the same compound, the “parasites in stool (qRT-PCR) at the end of treatment” value in series [18] is recorded as “not detected”. The peak plasma concentration in [19] amounted to 8.2 µM. Further, in series [19], the “plasma levels for 20 hours post-treatment” value is recorded as “exceeding 0.4 μM”. The AUC in series [13] (10 mg/kg) is 3.18 µM·h; in series [13] (50 mg/kg) it was 29.5 µM·h; in series [15] (mouse, po), 20 µM·h; in series [15] (mouse, po, 10 mg/kg) it was 0.95 µM·h; in [15] (mouse, po, 50 mg/kg), 5.18 µM·h. The Cmax in [13] (10 mg/kg) was found to be 700 nM; in series [13] (50 mg/kg), 8200 nM; in [15] (mouse, po) it was 6640 nM; in series [15] (mouse, po, 10 mg/kg), 200 nM; in series [15] (mouse, po, 50 mg/kg), 1100 nM. Also, the Tmax in series [13] (10 mg/kg) is 30 min; in [13] (50 mg/kg), 30 min; in series [15] (mouse, po), 120 min; in [15] (mouse, po, 10 mg/kg), 140 min; in series [15] (mouse, po, 50 mg/kg) it was 160 min. In [13] (50 mg/kg), this compound yielded a concentration at 20 h of 410 nM. In addition, the “Cell Toxicity SF539, % at 10 μM” value in series [7] was below 30% at 10 μM. Further, in series [8], the “Cell Toxicity HL60, % at 10 μM” value was below 30% at 10 μM. In addition, the “Cell Toxicity CRL8155, % at 10 μM” value in [9] is on record as below 30% at 10 μM. Besides, the “Cell Toxicity HCC2998, % at 10 μM” value in series [10] is below 30% at 10 μM. For the same compound, the “Blood level, First Peak” value in [15] (mice, 40 mg/kg oral gavage 3x daily for 4 days, 1 hr after first dose, mean±SD, N=3) is 50 ± 80 nM. For the same compound, in series [15] (mice, 40 mg/kg oral gavage 3x daily for 4 days, 1 hr after third dose of d4, mean±SD, N=3), the “Blood level, Fourth D4 Peak” value is 6600 ± 1600 nM. Further, the “Blood level, First Trough” value in [15] (mice, 40 mg/kg oral gavage 3x daily for 4 days, 17 hours after dosing, beginning of d2, mean±SD, N=3) came out at 0 ± 0 nM. Further, the concentration at 17 h in series [15] (mouse, blood, po, 40 mg/kg) stood at 0 nM. In addition, the “formation of oocysts in A. stephensi fed on treated mice” value in [20] (mice treated i.p., Compound 29 at 10 mg/kg, mosquitoes fed 30 minutes after dosing) is recorded as “completely blocked the formation of oocysts”. Moreover, the “impact on asexual parasitaemia or gametocyte rates” value in [20] (mice, 10 mg/kg i.p.) is “no impact”.
For the compound `Nc1ncnc2c1c(-c1ccc3cc(OCc4ccccc4)ccc3c1)nn2CC1CCNCC1` [Compound 34, 3-(6-(benzyloxy)naphthalen-2-yl)-1-(piperidin-4-ylmethyl)-1H-pyrazolo[3,4-d]pyrimidin-4-amine], in [21], the “Observed HFF Toxicity (T at concentration)” value is on record as “T at 100 μM”. In addition, half-maximal inhibition in [4] (IC50) required 1.61 µM. In addition, the figures for the EC50 in series [12] and in series [5] were 27.2 nM and 30.2 nM, respectively. Also, the solubility in series [17] (setting [24]) stood at 23 µM (≈ 10.7 µg/mL). Moreover, the “Cell Toxicity LD50 SF539” value in series [22] is 6 µM. In addition, the “Cell Toxicity SF539, % at 10 μM” value in series [7] worked out at 104%. For the same compound, the “Cell Toxicity HL60, % at 10 μM” value in [8] is on record as below 30% at 10 μM. Besides, in series [9], the “Cell Toxicity CRL8155, % at 10 μM” value is below 30% at 10 μM. The “Cell Toxicity HCC2998, % at 10 μM” value in [10] came to 30% at 10 μM.
On to `Nc1nc2ccc(C(=O)c3ccccc3)cc2[nH]1` [Compound 92], for which the 50% inhibitory concentration (IC50) in series [2] (Table 9) is above 10 µM; in [23], around 10 µM.
